In this assay the target is EED-EZH2 (Homo sapiens (Human), UniProt O75530). The assay can be described thus: EED-EZH2 AlphaScreen assay. In kind it is binding. The following applies: 8.7 nM EZH2, 5.0 nM EED, read-out: IC50 Potency Code. On the procedure: Biological activity of exemplary substituted pyrrolidones and piperidones was determined by the EED-EZH2 AlphaScreen assay according the following methodology.
EZH2 (non-complexed), His-GST-tags
Anti-FLAG AlphaLISA Acceptor Beads
AlphaScreen GSH Donor Beads
Assay Protocol (Calculated for 384 Wells or 1 Plate)
• 1. Thaw EED and EZH2 proteins on ice. • 2. Prepare 1× HMT Buffer 2: • 1.5 mL of 4× HMT Buffer 2+4.5 mL ddH2O. • 3. Prepare 1.2× EED-EZH2 solution in 1× HMT Buffer 2: 3.4 mL total • 2.1 uL of EED (0.41 mg/mL, 8.04 uM, 1:1608 dilution)+14 uL of EZH2 (0.24 mg/mL, 2.11 uM, 1:243 dilution)+3.384 mL of 1× HMT Buffer 2 • 4. Prepare 1.2× EZH2 solution in 1× HMT Buffer 2 (positive control): 0.168 mL total • 0.69 uL of EZH2 (0.24 mg/mL, 2.11 uM, 1:243 dilution)+167 uL of 1× HMT Buffer 2 • 5. Add 10 μL of 1.2× EED-EZH2 or 1.2× EZH2 solution to each well. • 6. Add compounds in DMSO via Echo transfer and 30 nL DMSO for control wells. • 7. Centrifuge at 15,000 rpm for 10 seconds and allow to incubate at rt for 1 hour. Step Two • 1. Prepare 6× Anti-FLAG and GSH Donor beads in 1× HMT Buffer 2 in the dark: 1 mL total • 10 uL of Anti-FLAG (1:100 dilution)+5 uL of GSH Donor (1:200 dilution)+985 uL of 1× HMT Buffer 2 • 2. Add 2 μL of bead solution to each well. • 3. Centrifuge at 15,000 rpm for 10 seconds and allow to incubate at rt for 1 hour in the dark. • 4. Read plate. Final Concentrations: • 12 μL volume per well • 8.7 nM EZH2 • 5.0 nM EED • DMSO<0.5% Calculations: • 1. Average EZH2 only wells (positive control) and subtract from all other wells. • 2. Average EED-EZH2 only wells (negative control) to indicate 100% signal or 0% inhibition. • 3. Normalize each well to the average 100% signal from step 2. • 4. Report either as normalized % inhibition or normalized % signal. • Use GraphPad to Calculate IC50.
(Bead proximity is the source of the signal in Alpha formats.)

Where only a bound is given, the exact number is not on record here.

Chain of EED-EZH2 (O75530 2-441): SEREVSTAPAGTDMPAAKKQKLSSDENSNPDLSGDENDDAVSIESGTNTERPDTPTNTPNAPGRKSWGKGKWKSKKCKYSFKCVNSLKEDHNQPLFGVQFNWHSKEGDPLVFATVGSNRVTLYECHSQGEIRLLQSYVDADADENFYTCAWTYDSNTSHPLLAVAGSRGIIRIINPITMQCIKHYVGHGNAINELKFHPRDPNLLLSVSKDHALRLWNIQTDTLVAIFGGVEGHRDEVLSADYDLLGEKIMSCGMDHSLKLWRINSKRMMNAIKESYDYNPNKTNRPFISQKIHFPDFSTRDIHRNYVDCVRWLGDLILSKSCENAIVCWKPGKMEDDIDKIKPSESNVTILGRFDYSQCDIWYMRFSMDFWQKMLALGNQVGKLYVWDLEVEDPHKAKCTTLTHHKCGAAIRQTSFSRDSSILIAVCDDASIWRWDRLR

For `O=C(NC1CCN(Cc2cccc(C(F)(F)F)c2)C1=O)c1cc(C(F)(F)F)ccc1O` (stereo not shown) [NUCC-0226232], the IC50 lay within 1000 to 10000 nM.
The value for `O=C(NCC1CC(=O)N(Cc2cccc(C(F)(F)F)c2)C1)c1cc(C(F)(F)F)ccc1O` (stereo not shown) [NUCC-0226233] was < 1000 nM; that for `O=C(N[C@H]1CC(=O)N(Cc2cccc(C(F)(F)F)c2)C1)c1cc(C(F)(F)F)ccc1O` [NUCC-0226234] was 1000 to 10000 nM.
Regarding `O=C(N[C@@H]1CC(=O)N(Cc2cccc(C(F)(F)F)c2)C1)c1cc(C(F)(F)F)ccc1O` [NUCC-0226235], the IC50 was 1000 to 10000 nM.
As to `CC1(C)C(=O)N(Cc2cccc(C(F)(F)F)c2)CC1NC(=O)c1cc(C(F)(F)F)ccc1O` (stereo not shown) [NUCC-0226236], the IC50 was < 1000 nM.
The same measure for `COC(=O)c1ccccc1CN1CC(NC(=O)c2cc(C(F)(F)F)ccc2O)CCC1=O` (stereo not shown) [NUCC-0226237]: 1000 to 10000 nM; for `O=C(N[C@H]1CCN(Cc2cccc(C(F)(F)F)c2)C1=O)c1cc(C(F)(F)F)ccc1O` [NUCC-0226238]: 1000 to 10000 nM; for `O=C(NCC1CCC(=O)N1Cc1cccc(C(F)(F)F)c1)c1cc(C(F)(F)F)ccc1O` (stereo not shown) [NUCC-0226240]: 1000 to 10000 nM.
The same measure for `O=C(NC[C@@H]1CCC(=O)N1Cc1cccc(C(F)(F)F)c1)c1cc(C(F)(F)F)ccc1O` [NUCC-0226241]: 1000 to 10000 nM; for `O=C(NC[C@H]1CCC(=O)N1Cc1cccc(C(F)(F)F)c1)c1cc(C(F)(F)F)ccc1O` [NUCC-0226242]: 1000 to 10000 nM.
The same measure for `O=C(NC[C@H]1CC(=O)N(Cc2cccc(F)c2)C1)c1cc(C(F)(F)F)ccc1O` [NUCC-0226243]: < 1000 nM; for `O=C(NC[C@@H]1CC(=O)N(Cc2cccc(C(F)(F)F)c2)C1)c1cc(C(F)(F)F)ccc1O` [NUCC-0226244]: < 1000 nM.
Take `O=C(N[C@@H]1CCN(Cc2cccc(C(F)(F)F)c2)C1=O)c1cc(C(F)(F)F)ccc1O` [NUCC-0226245]: the IC50 fell in the range of 1000 to 10000 nM.

What is called IC50 is the midpoint of a concentration-inhibition curve.
